In ChEMBL document CHEMBL2073746, “Inhibitory effect of the reversal agents V-104, GF120918 and Pluronic L61 on MDR1 Pgp-, MRP1- and MRP2-mediated transport” (Br J Cancer, 2000):

Assays:
Type in all cases: functional, cell-based
[1] = biological target: T1, ATP-dependent translocase ABCB1 (Homo sapiens, UniProt P08183); assay: TP_TRANSPORTER: inhibition of Daunorubicin transepithelial transport (basal to apical)(Daunorubicin: 2 uM, V-104: 15 uM) in MDR1-expressing MDCKII cells; conditions: dog, mdck-ii
[2] = biological target: T1, ATP-dependent translocase ABCB1; assay: TP_TRANSPORTER: inhibition of Vinblastine transepithelial transport (basal to apical) (Vinblastine: 2 uM, Pluronic L61: 0.04%) in MDR1-expressing LLC-PK1 cells; conditions: pig
[3] = biological target: ATP-binding cassette sub-family C member 2 (Homo sapiens, UniProt Q92887); assay: TP_TRANSPORTER: inhibition of Vinblastine transepithelial transport (basal to apical)(Vinblastine: 2 uM, Pluronic L61: 0.1%) in MRP2-expressing MDCKII cells; conditions: dog, mdck-ii
ATP-binding cassette sub-family C member 2, sequence (Q92887 whole entry): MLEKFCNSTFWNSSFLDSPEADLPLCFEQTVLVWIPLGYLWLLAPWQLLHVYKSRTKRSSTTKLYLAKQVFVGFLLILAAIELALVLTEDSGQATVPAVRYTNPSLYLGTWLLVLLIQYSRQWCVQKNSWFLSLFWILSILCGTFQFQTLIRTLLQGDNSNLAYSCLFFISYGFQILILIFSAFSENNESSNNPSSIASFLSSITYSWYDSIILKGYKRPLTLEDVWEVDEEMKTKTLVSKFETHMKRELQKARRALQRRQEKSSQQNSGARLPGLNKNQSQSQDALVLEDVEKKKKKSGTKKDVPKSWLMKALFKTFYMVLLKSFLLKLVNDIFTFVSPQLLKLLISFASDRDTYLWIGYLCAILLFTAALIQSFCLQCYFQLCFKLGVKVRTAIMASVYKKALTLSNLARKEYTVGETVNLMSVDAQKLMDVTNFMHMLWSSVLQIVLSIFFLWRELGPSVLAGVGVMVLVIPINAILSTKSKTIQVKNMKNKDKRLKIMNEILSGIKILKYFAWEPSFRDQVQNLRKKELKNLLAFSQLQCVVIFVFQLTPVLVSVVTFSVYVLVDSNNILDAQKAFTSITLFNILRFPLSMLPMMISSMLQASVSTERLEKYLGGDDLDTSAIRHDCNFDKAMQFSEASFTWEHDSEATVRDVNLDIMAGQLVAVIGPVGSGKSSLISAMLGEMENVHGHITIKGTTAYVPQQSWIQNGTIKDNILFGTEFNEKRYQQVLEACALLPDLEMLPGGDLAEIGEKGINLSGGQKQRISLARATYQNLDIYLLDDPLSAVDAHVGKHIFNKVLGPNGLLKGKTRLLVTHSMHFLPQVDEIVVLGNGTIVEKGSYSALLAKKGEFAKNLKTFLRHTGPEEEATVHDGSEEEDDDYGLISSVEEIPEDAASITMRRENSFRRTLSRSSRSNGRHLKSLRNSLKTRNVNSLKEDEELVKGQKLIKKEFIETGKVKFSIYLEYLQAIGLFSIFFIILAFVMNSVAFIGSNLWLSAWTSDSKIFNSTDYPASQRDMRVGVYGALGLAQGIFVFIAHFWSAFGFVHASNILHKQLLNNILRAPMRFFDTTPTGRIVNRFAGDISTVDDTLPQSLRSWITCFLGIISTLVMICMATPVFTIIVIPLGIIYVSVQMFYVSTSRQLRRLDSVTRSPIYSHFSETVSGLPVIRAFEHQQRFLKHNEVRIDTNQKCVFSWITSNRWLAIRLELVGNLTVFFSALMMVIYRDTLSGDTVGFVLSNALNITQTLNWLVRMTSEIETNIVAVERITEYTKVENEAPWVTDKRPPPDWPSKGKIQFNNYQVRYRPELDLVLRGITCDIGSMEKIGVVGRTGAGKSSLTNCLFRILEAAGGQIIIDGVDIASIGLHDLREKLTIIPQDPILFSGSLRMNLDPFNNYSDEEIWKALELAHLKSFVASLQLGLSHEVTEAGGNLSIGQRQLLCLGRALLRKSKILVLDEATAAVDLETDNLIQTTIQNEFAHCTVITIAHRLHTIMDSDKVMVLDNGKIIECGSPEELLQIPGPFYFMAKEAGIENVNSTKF

T1 sequence (P08183 whole entry): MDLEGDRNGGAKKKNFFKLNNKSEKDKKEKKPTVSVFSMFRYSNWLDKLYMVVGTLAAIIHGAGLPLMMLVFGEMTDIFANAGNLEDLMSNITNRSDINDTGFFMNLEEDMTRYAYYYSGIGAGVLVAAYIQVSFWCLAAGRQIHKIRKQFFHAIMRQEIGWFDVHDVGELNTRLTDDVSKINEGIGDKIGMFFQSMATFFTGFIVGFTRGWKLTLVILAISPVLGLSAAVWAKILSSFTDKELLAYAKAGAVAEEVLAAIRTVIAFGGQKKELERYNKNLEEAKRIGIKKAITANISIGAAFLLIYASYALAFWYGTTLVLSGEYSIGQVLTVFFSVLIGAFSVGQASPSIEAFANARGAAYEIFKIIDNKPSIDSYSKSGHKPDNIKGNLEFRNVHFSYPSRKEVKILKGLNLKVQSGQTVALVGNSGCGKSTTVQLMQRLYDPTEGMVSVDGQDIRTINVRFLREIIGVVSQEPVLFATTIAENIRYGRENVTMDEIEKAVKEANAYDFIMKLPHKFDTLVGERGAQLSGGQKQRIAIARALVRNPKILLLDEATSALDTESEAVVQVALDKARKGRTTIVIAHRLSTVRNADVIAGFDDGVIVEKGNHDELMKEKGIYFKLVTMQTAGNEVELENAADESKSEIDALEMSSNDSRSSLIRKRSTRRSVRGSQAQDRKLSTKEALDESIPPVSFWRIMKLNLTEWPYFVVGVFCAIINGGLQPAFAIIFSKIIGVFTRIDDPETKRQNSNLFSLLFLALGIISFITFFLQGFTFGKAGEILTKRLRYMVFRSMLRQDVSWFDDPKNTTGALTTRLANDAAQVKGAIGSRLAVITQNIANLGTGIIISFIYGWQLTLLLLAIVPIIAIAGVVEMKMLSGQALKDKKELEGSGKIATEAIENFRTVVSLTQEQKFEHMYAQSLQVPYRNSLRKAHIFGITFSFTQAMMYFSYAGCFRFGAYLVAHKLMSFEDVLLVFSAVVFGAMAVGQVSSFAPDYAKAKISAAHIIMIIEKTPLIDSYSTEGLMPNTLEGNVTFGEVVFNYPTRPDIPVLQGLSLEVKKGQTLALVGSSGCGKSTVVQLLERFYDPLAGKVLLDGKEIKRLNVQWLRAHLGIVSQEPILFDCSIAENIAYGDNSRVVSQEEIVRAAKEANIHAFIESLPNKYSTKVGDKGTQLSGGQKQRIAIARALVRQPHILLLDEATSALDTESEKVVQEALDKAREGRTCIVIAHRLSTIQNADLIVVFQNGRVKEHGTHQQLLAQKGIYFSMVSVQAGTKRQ

Activity [1]	Activity [2]	Activity [3]	Compound
inhibitor [+]			COc1cc(C(=O)C(=O)N2CCCC[C@H]2C(=O)O)cc(OC)c1OC
	inhibitor [+]	inhibitor [+]	PLURONIC L61
